Assays:
[1] = molecular target: Proto-oncogene tyrosine-protein kinase Src (Homo sapiens, UniProt P12931); assay: Selectivity interaction (Millipore kinase profiler) EUB0000124b SRC; settings: at 10 µM
[2] = system: Tyrosine-protein kinase ABL1 (Homo sapiens), P00519 [Q252H]; assay: Selectivity interaction (KinomeScan (DiscoverX)) EUB0000666a ABL1; settings: at 10 µM
[3] = molecular target: Serine/threonine-protein kinase OSR1 (Homo sapiens) (UniProt O95747); assay: Selectivity interaction (KinomeScan (DiscoverX)) EUB0000666a OXSR1; settings: at 10 µM
[4] = molecular target: T1, Mitogen-activated protein kinase 13 (Homo sapiens) (UniProt O15264); assay: Selectivity interaction (KinomeScan (DiscoverX)) EUB0000666a MAPK13; settings: at 10 µM
T1 sequence (whole entry): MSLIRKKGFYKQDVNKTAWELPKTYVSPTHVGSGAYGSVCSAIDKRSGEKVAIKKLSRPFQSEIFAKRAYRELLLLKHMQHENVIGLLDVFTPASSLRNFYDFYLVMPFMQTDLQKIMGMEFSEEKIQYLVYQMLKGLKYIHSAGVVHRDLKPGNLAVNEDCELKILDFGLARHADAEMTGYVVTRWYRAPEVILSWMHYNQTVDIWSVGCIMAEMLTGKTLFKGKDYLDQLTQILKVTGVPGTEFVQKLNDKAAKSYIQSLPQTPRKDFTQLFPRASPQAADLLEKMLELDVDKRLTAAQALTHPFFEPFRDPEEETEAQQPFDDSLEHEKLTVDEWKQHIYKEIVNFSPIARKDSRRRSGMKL

[5] = molecular target: Serine/threonine-protein kinase PLK3 (Homo sapiens, UniProt Q9H4B4); assay: Selectivity interaction (KinomeScan (DiscoverX)) EUB0001079a PLK3; settings: at 1 µM
Serine/threonine-protein kinase PLK3, sequence (Q9H4B4 whole entry, looked up): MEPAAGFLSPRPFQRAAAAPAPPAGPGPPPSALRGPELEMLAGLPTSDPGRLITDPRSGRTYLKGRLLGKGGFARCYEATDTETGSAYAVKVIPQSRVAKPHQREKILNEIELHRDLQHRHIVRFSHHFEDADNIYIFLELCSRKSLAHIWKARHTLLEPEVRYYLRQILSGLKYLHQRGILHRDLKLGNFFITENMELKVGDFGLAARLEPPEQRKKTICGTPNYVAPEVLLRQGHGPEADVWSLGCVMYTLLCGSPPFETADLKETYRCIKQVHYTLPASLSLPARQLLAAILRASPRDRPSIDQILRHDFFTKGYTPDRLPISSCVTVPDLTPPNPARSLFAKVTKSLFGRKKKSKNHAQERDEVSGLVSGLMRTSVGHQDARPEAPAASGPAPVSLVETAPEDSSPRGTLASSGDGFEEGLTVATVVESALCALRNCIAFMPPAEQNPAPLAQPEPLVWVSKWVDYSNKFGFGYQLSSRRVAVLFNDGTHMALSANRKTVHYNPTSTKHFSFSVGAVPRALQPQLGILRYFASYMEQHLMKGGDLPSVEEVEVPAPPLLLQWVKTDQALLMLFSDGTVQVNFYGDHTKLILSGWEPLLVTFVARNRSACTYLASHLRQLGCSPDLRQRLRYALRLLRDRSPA

[6] = molecular target: Non-receptor tyrosine-protein kinase TYK2 (Homo sapiens, UniProt P29597); settings: at 10 µM
[7] = molecular target: T2, Mitogen-activated protein kinase kinase kinase 2 (Homo sapiens) (UniProt Q9Y2U5); assay: Selectivity interaction (ActivX KiNativ screen (kinase selectivity in THP-1 cell lysates)) EUB0000639a MAP3K2; type: subcellular; settings: lysate
T2 sequence (whole entry): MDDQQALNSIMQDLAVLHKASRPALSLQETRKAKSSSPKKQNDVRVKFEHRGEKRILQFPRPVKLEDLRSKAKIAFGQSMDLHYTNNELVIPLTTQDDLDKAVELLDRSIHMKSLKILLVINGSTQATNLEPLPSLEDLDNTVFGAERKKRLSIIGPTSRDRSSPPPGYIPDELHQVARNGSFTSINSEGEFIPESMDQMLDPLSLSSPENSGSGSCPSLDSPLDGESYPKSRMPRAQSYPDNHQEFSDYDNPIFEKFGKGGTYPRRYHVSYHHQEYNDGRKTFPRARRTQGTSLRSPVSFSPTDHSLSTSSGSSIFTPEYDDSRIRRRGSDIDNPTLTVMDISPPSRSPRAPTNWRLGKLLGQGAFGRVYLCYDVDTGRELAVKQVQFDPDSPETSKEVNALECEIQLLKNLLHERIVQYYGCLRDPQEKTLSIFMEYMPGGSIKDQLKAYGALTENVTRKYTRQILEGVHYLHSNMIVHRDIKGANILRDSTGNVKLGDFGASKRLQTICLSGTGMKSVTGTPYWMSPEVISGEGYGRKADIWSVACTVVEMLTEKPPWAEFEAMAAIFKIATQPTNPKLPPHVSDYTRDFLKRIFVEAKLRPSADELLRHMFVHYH

[8] = molecular target: G protein-coupled receptor kinase 4 (Homo sapiens) (UniProt P32298); assay: Selectivity interaction (KinomeScan (DiscoverX)) EUB0000092b GRK4; settings: at 10 µM
G protein-coupled receptor kinase 4 (Homo sapiens), sequence (P32298 whole entry, looked up): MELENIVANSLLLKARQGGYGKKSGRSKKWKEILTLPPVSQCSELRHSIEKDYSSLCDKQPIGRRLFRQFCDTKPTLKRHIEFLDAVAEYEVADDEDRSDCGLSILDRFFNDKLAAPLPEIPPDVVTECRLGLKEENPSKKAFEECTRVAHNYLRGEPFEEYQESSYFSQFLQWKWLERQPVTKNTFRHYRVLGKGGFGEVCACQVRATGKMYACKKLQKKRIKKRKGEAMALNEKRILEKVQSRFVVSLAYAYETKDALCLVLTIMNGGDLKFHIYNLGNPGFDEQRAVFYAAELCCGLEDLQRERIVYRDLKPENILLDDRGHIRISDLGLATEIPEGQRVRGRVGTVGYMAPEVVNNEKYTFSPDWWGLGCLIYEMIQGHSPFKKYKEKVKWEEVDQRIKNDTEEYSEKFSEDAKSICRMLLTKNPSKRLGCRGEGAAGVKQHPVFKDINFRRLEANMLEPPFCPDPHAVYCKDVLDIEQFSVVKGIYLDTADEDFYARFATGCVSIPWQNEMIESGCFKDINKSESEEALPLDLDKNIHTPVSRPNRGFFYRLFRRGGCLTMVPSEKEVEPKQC

[9] = molecular target: RAC-gamma serine/threonine-protein kinase (Homo sapiens, UniProt Q9Y243); assay: Selectivity interaction (Kinase screening (Nanosyn)) EUB0000604a AKT3
RAC-gamma serine/threonine-protein kinase, sequence (Q9Y243 whole entry): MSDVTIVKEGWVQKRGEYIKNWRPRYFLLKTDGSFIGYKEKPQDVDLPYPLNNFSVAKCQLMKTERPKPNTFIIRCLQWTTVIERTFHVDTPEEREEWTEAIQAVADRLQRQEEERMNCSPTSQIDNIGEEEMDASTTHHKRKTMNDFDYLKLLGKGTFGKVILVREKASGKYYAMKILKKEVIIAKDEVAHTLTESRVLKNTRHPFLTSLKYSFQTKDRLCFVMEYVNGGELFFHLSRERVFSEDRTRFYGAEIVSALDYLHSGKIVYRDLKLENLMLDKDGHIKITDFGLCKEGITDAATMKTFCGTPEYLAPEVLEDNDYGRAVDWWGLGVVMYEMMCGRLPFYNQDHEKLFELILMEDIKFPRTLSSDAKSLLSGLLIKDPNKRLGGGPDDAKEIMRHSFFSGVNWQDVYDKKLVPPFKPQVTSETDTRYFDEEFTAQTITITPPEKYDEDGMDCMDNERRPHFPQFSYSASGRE

[10] = molecular target: T3, Serine/threonine-protein kinase D1 (Homo sapiens) (UniProt Q15139); assay: Selectivity interaction (Ambit KINOMEscan and KiNATiv profiling in Jurkat cells) EUB0000090b PRKD1; type: cell-based; settings: at 1 µM
T3 sequence (whole entry): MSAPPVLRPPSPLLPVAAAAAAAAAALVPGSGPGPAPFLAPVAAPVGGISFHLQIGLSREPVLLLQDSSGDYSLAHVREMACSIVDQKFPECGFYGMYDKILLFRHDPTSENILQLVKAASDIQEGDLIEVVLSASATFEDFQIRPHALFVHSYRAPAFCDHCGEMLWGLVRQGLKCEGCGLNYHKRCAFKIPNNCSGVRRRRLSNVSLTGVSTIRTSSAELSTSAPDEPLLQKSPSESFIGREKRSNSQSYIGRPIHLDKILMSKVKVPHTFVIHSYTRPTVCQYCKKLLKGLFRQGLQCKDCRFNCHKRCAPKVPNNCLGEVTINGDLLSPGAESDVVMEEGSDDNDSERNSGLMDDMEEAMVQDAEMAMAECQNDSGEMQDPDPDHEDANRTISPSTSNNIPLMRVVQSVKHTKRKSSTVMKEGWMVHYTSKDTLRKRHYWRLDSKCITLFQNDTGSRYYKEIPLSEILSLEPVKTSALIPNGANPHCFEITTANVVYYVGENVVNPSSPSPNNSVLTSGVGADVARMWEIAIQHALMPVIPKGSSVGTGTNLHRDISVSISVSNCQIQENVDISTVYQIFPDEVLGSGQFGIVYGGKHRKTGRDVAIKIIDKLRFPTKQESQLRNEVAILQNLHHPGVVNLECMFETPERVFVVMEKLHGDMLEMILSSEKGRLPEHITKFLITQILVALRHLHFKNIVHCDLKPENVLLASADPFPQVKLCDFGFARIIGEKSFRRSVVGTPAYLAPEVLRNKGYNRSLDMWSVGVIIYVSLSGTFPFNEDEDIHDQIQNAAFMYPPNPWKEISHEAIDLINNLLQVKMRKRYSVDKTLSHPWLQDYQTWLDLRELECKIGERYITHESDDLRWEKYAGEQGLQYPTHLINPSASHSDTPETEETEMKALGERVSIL

[11] = molecular target: Mitogen-activated protein kinase kinase kinase kinase 5 (Homo sapiens) (UniProt Q9Y4K4); assay: Selectivity interaction (KinomeScan (DiscoverX)) EUB0001619a MAP4K5; settings: at 1 µM
[12] = molecular target: Polycomb protein SUZ12 (Homo sapiens) (UniProt Q15022); assay: Selectivity interaction (Methyltransferase screen (radiometric assays, panel of 8 PRMTs, 21 protein lysine methyltransferases, 3 DNA methyltransferases, and one RNA methyltransferase)) EUB0000271b SUZ12
Polycomb protein SUZ12 (Homo sapiens), sequence (Q15022 whole entry): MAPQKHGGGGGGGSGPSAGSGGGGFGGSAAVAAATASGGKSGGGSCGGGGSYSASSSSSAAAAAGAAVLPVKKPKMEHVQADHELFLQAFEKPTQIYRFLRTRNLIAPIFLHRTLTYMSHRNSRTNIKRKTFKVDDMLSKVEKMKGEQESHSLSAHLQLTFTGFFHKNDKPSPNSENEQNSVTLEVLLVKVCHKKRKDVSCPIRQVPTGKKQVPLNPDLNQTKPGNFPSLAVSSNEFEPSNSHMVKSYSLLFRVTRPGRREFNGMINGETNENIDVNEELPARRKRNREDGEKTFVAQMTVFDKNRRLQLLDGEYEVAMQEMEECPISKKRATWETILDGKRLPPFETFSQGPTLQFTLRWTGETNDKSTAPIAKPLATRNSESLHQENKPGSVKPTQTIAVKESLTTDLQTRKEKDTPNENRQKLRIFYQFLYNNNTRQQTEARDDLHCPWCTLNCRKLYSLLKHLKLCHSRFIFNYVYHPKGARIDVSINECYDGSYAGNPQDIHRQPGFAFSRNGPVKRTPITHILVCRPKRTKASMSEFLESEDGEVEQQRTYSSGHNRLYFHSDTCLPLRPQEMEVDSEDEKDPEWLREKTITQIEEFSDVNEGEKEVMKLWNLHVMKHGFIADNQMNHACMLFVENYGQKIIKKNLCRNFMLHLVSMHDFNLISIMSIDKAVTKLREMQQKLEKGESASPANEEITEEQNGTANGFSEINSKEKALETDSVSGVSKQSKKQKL

[13] = molecular target: Protein arginine N-methyltransferase 6 (Homo sapiens, UniProt Q96LA8); assay: Selectivity interaction (Methyltransferase screen (radiometric assays, panel of 8 PRMTs, 21 protein lysine methyltransferases, 3 DNA methyltransferases, and one RNA methyltransferase)) EUB0000271b PRMT6
Protein arginine N-methyltransferase 6, sequence (Q96LA8 whole entry, looked up): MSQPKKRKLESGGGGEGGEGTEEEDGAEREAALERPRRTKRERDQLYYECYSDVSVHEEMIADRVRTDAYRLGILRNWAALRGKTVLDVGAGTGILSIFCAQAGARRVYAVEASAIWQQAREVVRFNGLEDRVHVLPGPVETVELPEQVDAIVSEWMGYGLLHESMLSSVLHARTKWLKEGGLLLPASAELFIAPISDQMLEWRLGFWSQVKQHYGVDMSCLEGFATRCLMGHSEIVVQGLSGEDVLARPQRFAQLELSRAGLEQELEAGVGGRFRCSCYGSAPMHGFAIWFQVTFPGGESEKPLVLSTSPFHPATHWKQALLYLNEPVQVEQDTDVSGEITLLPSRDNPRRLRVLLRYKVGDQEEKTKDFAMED

[14] = molecular target: Insulin receptor (Homo sapiens, UniProt P06213); assay: Selectivity interaction (ProQinase) EUB0000171b INSR; settings: at 1 µM
Insulin receptor, sequence (P06213 28-758 limits assumed): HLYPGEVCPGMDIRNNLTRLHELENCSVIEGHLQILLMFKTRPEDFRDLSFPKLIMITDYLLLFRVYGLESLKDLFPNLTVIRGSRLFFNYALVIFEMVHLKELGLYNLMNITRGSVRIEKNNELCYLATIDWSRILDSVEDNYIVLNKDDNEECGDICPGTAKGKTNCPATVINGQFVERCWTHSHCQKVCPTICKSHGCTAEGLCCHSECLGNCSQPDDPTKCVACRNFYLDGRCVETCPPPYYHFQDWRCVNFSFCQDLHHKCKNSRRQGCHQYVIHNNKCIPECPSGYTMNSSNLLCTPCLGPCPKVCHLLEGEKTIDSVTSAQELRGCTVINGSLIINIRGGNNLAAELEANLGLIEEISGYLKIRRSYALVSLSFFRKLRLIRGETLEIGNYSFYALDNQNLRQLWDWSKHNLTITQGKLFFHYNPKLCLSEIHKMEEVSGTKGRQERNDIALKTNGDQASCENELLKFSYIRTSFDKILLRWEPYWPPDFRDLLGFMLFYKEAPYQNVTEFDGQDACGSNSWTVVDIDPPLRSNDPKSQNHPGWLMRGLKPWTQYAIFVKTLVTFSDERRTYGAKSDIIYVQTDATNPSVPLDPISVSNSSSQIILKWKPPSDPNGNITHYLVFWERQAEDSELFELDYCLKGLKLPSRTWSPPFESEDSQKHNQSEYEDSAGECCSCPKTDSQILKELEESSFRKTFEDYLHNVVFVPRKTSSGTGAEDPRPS
Insulin receptor, sequence (P06213 763-1382 limits assumed): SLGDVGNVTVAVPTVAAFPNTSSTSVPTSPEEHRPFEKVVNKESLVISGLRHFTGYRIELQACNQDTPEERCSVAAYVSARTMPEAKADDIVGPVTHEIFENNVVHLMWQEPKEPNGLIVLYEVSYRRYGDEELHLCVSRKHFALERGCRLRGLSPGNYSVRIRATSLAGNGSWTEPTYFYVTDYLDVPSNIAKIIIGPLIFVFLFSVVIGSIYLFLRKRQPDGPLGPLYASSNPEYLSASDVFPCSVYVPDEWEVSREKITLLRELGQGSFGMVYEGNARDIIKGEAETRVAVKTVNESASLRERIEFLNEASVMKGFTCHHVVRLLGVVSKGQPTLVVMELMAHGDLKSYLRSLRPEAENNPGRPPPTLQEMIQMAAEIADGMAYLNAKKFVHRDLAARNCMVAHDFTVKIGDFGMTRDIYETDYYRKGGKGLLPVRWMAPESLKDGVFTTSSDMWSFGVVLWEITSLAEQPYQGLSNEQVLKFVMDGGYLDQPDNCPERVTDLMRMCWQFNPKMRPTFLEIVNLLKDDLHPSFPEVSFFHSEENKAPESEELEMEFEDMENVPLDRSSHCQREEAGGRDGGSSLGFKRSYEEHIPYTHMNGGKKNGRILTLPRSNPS

Proto-oncogene tyrosine-protein kinase Src, sequence (P12931 2-536 limits assumed): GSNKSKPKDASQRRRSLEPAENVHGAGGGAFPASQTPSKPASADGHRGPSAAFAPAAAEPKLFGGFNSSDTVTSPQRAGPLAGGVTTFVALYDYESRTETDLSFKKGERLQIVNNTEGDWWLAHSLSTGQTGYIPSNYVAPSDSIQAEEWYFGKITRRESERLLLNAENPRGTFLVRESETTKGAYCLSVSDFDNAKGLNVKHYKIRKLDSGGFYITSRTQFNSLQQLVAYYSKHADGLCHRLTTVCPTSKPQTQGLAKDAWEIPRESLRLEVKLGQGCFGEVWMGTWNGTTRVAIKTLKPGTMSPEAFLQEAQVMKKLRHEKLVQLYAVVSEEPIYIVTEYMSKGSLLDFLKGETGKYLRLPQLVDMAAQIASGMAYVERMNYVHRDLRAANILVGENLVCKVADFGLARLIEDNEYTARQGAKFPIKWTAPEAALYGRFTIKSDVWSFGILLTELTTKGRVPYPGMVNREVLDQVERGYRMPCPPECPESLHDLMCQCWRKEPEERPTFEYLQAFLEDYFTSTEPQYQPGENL

CC(=O)Nc1cccc(-n2c(=O)n(C3CC3)c(=O)c3c(Nc4ccc(I)cc4F)n(C)c(=O)c(C)c32)c1
% of control [1]: 82%

O=C(NOC[C@H](O)CO)c1ccc(F)c(F)c1Nc1ccc(I)cc1F
% of control [2]: 100%
% of control [3]: 100%
% of control [4]: 6.1%

Nc1cnc(N2CCc3cc(S(=O)(=O)Nc4c(F)cc(Cl)cc4F)cc(N4CCCC4=O)c32)nc1 [TP-020n]
% of control [5]: 100%

CCN(CC)CCCCNc1ncc2cc(-c3cc(OC)cc(OC)c3)c(NC(=O)NC(C)(C)C)nc2n1
% of control [6]: 100%

CC[C@@H]1[C@H](F)C(=O)N[C@@H]1COc1nccc2cc(C(N)=O)c(OC)cc12 [ZIMLOVISERTIB]
% of inhibition ([7]; at 0.01 µM): -0.4%
% of inhibition ([7]; at 0.04 µM): -0.5%
% of inhibition ([7]; at 0.2 µM): -5.2%
% of inhibition ([7]; at 1 µM): 3%
% of inhibition ([7]; at 5 µM): 6.3%

CCC(=O)N1CCN(c2ccc(-n3c(=O)ccc4cnc5ccc(-c6cnc7ccccc7c6)cc5c43)cc2C(F)(F)F)CC1
% of control [8]: 90%

Cc1cnc(Nc2ccc(F)cc2Cl)nc1-c1c[nH]c(C(=O)N[C@H](CO)c2cccc(Cl)c2)c1
% of inhibition [9]: 0%

CN(C)C/C=C/C(=O)Nc1ccc(C(=O)N2CCCC(Nc3ncc(Cl)c(-c4c[nH]c5ccccc45)n3)C2)cc1 (stereo not given)
% of control [10]: 31%

N#Cc1cccc(-c2c[nH]c3ncnc(N4CCOCC4)c23)c1
% of control [11]: 53%

Cc1cc(C)cc([C@@H]2c3cc(C)ccc3NC(=O)CN2C(=O)c2ccc(Br)s2)c1
% of activity ([12]; at 1 µM): 101%
% of activity ([12]; at 10 µM): 101%
% of activity ([13]; at 1 µM): 16.7%
% of activity ([13]; at 10 µM): 7.33%

C=CC(=O)Nc1cccc(C(=O)Nc2ccc(Nc3cc(-c4[nH]c(SC)nc4C)ccn3)cc2)c1
% of control [14]: 81%

— ChEMBL document CHEMBL5465560, “Selectivity Literature for EUbOPEN Chemogenomic Library” (2024)
